Results from paper PMC12164290, “Immune-modulatory effects of Spindlin-1 inhibitors” (Clinical and Experimental Immunology, 2025).
Where two headings read alike, the source gives them in different places.

Assays:
B cells [1] = assay: viability assay (Orangu, formazan-based), B cells; design: species or system human; conditions: 48 h, n = 3, read-out: B cell viability IC50
Method: (§1) 2 × 10^5 CD4^+ T cells, 1 × 10^5 B cells, 1 × 10^5 monocytes, 1 × 10^5 M1 MdMs, or 1 × 10^5 M2 MdMs were treated with A366, MS31, or vehicle for 48 h. The viability was determined with the Orangu^TM assay as described by the manufacturer.

M1 macrophages = assay: polarization of MdMs to M1 macrophages (surface markers, cytokines, viability); format: cell-based, human
Method: (§2) The generation of monocyte-derived macrophages (MdMs) was performed as previously described. Briefly, 0.5 × 10^6 CD14^+ cells/well were differentiated to macrophages in the presence of 10 ng/ml M-CSF (for M2 macrophages) or 10 ng/ml GM-CSF (for M1 macrophages) for 7 days. The macrophages were polarized in the presence of different concentrations of A366, MS31, or vehicle (DMSO) in 48-well plates. After pre-incubation with test substances or DMSO for 30 min, stimulants for differentiation were added: 20 ng/ml IFNγ for M1 macrophages and 10 ng/ml IL4 for M2 macrophages and incubated for 48h and 24h, respectively.
(§3) For analysis of the surface markers, 1.5–2*10^5 cells of each sample were blocked with human FcR Blocking Reagent (15 min, 4 °C). Afterwards, samples were stained with up to 7 µl of a mixture of different surface marker antibodies (15 min, 4 °C) and 250 µl of 10 % FCS/PBS were added. After centrifugation (300 g, 5 min, 4 °C) samples were resuspended in 100 µl PBS and measured with MACSQuant® Analyzer 10 flow cytometer. For M1-/M2-MdMs, anti-CD86, anti-CD14, anti-HLA-DR, anti-CD206, anti-CD80, anti-TREM2, and anti-CD163 were used. For CD4^+ T cells, anti-CD69, anti-CD45RO, anti-CD134, anti-CD154, anti-CD3, anti-CD25 were employed. For B cells, anti-CD27, anti-CD19, and anti-CD38 were applied. Zombie Aqua™ Fixable Viability Kit (1:500 dilution, BioLegend, San Diego, CA, USA) (for CD4^+ T cells, macrophages) or Annexin/PE staining (BD Biosciences, Heidelberg, Germany) (for B cells) was used to discriminate living and dead cells according to the manufacturers protocol. For T cell and B cell proliferation assays, freshly isolated T and B cells were stained with CTV and the decrease in CTV as a result of cell proliferation was detected by flow cytometry. CTV positive cells were gated in high proliferating cells (low CTV level), medium proliferating cells (medium CTV level), and nonproliferating cells (high CTV level). Plasmablasts were characterized as CD27^+CD38^+ cells, naïve B as CD19^+CD27^lowCD38^med, and memory B cells as CD19^+CD27^med CD38^low (Supplementary Fig. 1). For M1 MdMs, the cell population was gated using FSC/SSC channel, for M2 MdMs, the CD163^med population was gated since IL4 downregulates CD163 [18] and for CD4^+ T cells, CD3^+CD25^+ cells were gated. Geometric mean of the fluorescent intensity was calculated using FlowJo software V10 (Treestar, Ashland, TN, USA). Fold induction of surface marker expression was calculated using the DMSO-treated cells as control.
(§4) For determination of cytokine concentrations (IL10, IL17, IL8, IL6, IFNγ, CCL2) in the supernatant of humane immune cells, cytometric bead array (BD Biosciences, Heidelberg, Germany) was used. For the detection of IgG, IgA, PGE2, CCL18, and CCL17 an ELISA was performed. The cytometric bead arrays and the ELISAs were performed according to the manufacturers protocol.

M2 MdMs [2] = assay: viability assay (Orangu, formazan-based), M2 MdM; format: cell-based, human; conditions: 48 h, n = 3
Method: as §1

M1 MdMs [3] = assay: viability assay (Orangu, formazan-based), M1 MdM; format: cell-based, human; conditions: 48 h, n = 3
Method: as §1

M2 macrophages = assay: polarization of MdMs to M2 macrophages (surface markers, cytokines, viability); format: cell-based, human
Method: as §2, §3, §4

CD4+ T cells [4] = assay: CD4+ T cell activation with anti-CD3/anti-CD28 (proliferation, surface markers, cytokines, viability); format: cell-based
Method: CTV staining was performed according to the protocol of supplier.
For analysis of the surface markers, 1.5–2*10^5 cells of each sample were blocked with human FcR Blocking Reagent (15 min, 4 °C). Afterwards, samples were stained with up to 7 µl of a mixture of different surface marker antibodies (15 min, 4 °C) and 250 µl of 10 % FCS/PBS were added. After centrifugation (300 g, 5 min, 4 °C) samples were resuspended in 100 µl PBS and measured with MACSQuant® Analyzer 10 flow cytometer. […] For CD4^+ T cells, anti-CD69, anti-CD45RO, anti-CD134, anti-CD154, anti-CD3, anti-CD25 were employed. […] Zombie Aqua™ Fixable Viability Kit (1:500 dilution, BioLegend, San Diego, CA, USA) (for CD4^+ T cells, macrophages) or Annexin/PE staining (BD Biosciences, Heidelberg, Germany) (for B cells) was used to discriminate living and dead cells according to the manufacturers protocol. For T cell and B cell proliferation assays, freshly isolated T and B cells were stained with CTV and the decrease in CTV as a result of cell proliferation was detected by flow cytometry. CTV positive cells were gated in high proliferating cells (low CTV level), medium proliferating cells (medium CTV level), and nonproliferating cells (high CTV level). […] For M1 MdMs, the cell population was gated using FSC/SSC channel, for M2 MdMs, the CD163^med population was gated since IL4 downregulates CD163 [18] and for CD4^+ T cells, CD3^+CD25^+ cells were gated. Geometric mean of the fluorescent intensity was calculated using FlowJo software V10 (Treestar, Ashland, TN, USA). Fold induction of surface marker expression was calculated using the DMSO-treated cells as control.

B cells [5] = assay: B cell activation with IL-21, sCD40L, CpG, anti-IgM (proliferation, plasmablasts, IgG/IgA, viability); format: cell-based, human; conditions: for B cell proliferation / formation of plasmablasts / release of IgA / release of IgG: IL-21, sCD40L, CpG, anti-IgM, 5 days, A366 and MS31 concentration-dependent
Method: B cells were activated as described previously. Briefly, 1.25 × 10^5 B cells (stained with 0.25 µM CTV) per well were seeded in a 48 well plate and pretreated with A366, MS31, rapamycin, or vehicle (DMSO) for 30 min and then stimulated with 2.5 μg/ml CpG, 5 μg/ml unconjugated goat antihuman IgM F(ab′)2 fragments, 1 μg/ml sCD40L, and 50 ng/ml recombinant human IL-21 for 5 days.
as §3, §4

monocytes = assay: viability assay (Orangu, formazan-based), monocytes; format: cell-based, human; conditions: 48 h, n = 3, read-out: Monocyte viability IC50
Method: as §1

M1 MdMs [6] = assay: energy metabolism (Seahorse OCR/ECAR), M1 MdMs; format: cell-based, human; conditions: polarized 48 h in presence of compound
Method: (§5) The energy metabolism was determined as described previously. Briefly, for the analysis of the extracellular acidification rate (ECAR) and the oxygen consumption rate (OCR) for human M1 MdMs, M2 MdMs, and activated B-/ CD4^+ T cells, the Seahorse XFe96 FluxPak (Agilent, Waldbronn, Germany) was used as recommended by the supplier. MdMs were polarized to M1 or M2 MdMs, B- and CD4^+ T cells were activated in the presence of A366, MS31, or vehicle (DMSO) for 48 h (M1 MdMs), 24 h (M2 MdMs) or 5 days (T/B cells). Cells were washed with Seahorse XF RPMI medium pH 7.4 (Agilent, Waldbronn, Germany), and OCR and ECAR were measured for a period of 120 min using the Seahorse XFe96 Analyzer (Agilent, Waldbronn, Germany) and analyzed by Wave Software (Agilent, Waldbronn, Germany). For T/B cells, the values after 50 min of stimulation of samples were related to the unstimulated control sample. For macrophages, the values at 50 min in treated samples were related to the vehicle control.

CD4+ T cells [7] = assay: viability assay (Orangu, formazan-based), CD4+ T cells; design: species or system human; conditions: 48 h, n = 3, read-out: T cell viability IC50
Method: as §1

M2 MdMs [8] = assay: energy metabolism (Seahorse OCR/ECAR), M2 MdMs; format: cell-based, human; conditions: polarized 24 h in presence of compound
Method: as §5

[9] = test system: primary human immune cells; assay: viability of primary human immune cells, formazan-based Orangu assay (ranges over cell types); conditions: 48 h
Method: as §1

[10] = test system: Spindlin-1-H3K4me3-interaction; design: method as in PMID 31260300, PMID 34492335; conditions: cited from earlier work
B cells [11] = assay: energy metabolism (Seahorse OCR/ECAR), activated B cells; format: cell-based, human; conditions: 5 days
Method: as §5

[12] = M1 polarization, 48 h, flow cytometry
[13] = M1 polarization, 48 h, supernatant
[14] = M2 polarization, 24 h, supernatant

Compound: COc1c(CN)cc(CN)cc1OCCCN1Cc2ccccc2C1 [MS31]
- IC50 (B cells [1]): 11 µM
- overall effect on M1 polarization (M1 macrophages): may shift M1 to an M2 phenotype
- cytotoxicity during polarization of M1 macrophages (M1 macrophages; 0–50 µM, 48 h, zombie staining): did not induce cytotoxicity
- CD163 surface marker expression (M1 macrophages; [12]): slightly increased
- TREM2 surface marker expression (M1 macrophages; [12]): slightly increased
- release of IFNγ (M1 macrophages; [13]): upregulated the release of IFNγ more pronouncedly
- release of IL8 (M1 macrophages; [13]): significantly inhibited
- IC50 (M2 MdMs [2]): 89 µM
- IC50 (M1 MdMs [3]): 3120 µM
- overall effect on M2 polarization (M2 macrophages): may weaken M2 polarization
- cytotoxicity during polarization of macrophages to M2 MdMs (M2 macrophages; 0–50 µM, zombie staining): did not induce cytotoxicity
- CD86 surface marker expression (M2 macrophages; M2 polarization, 24 h, flow cytometry): reduced
- CCL2 release (M2 macrophages; [14]): reduced
- CCL18 release (M2 macrophages; [14]): increased
- IL10 release (M2 macrophages; [14]): reduced
- PGE2 release (M2 macrophages; [14]): reduced
- cytotoxic effects on CD4+ T cells (CD4+ T cells [4]; 0–10 µM, 5 days): no cytotoxic effects
- CD134 expression (CD4+ T cells [4]; activated CD4+ T cells, 5 days): increased
- activation of CD4+ T cells (CD25 positive, CD25 and CD69 positive cells, CD69) (CD4+ T cells [4]; anti-CD3/anti-CD28, 5 days): did not influence
- proliferation of CD4+ T cells (CD4+ T cells [4]; anti-CD3/anti-CD28, 5 days, CTV): did not affect
- B cell activation (proliferation, plasmablast formation, release of immunoglobulins A and G) (B cells [5]; 2.5 µM): clearly prevented
- B cell proliferation (B cells [5]): markedly reduced
- formation of plasmablasts (B cells [5]): markedly reduced
- release of IgA (B cells [5]): markedly reduced
- release of IgG (B cells [5]): markedly reduced
- IC50 (monocytes): 42 µM
- energy metabolism (OCR, ECAR) of M1 MdMs (M1 MdMs [6]): did not affect
- IC50 (CD4+ T cells [7]): 22 µM
- OCR in M2 MdMs (M2 MdMs [8]): only slightly increased
- IC50 ([9]; range for CD4+ T cells and B cells, read-out: viability IC50 values): 11 to 22 µM
- IC50 ([9]; range over all immune cell types tested, read-out: IC50, immune cell type-dependent cytotoxicity): 11 to 3120 µM
- IC50 [10]: 0.077 µM

Compound: CO[C@H]1C[C@@H]2CC[C@@H](C)[C@@](O)(O2)C(=O)C(=O)N2CCCC[C@H]2C(=O)O[C@H]([C@H](C)C[C@@H]2CC[C@@H](O)[C@H](OC)C2)CC(=O)[C@H](C)/C=C(\C)[C@@H](O)[C@@H](OC)C(=O)[C@H](C)C[C@H](C)/C=C/C=C/C=C/1C [rapamycin]
- energy metabolism of activated B cells (OCR, ECAR) (B cells [11]): induced both glycolysis and oxidative phosphorylation
- B cell proliferation (B cells [5]): inhibit
- formation of plasmablasts (B cells [5]): inhibit
- release of IgA (B cells [5]): inhibit
- release of IgG (B cells [5]): inhibit
